Measurements: US4766111A, “Lipids with plasmin inhibitory properties” (Trustees of Boston University, priority 1987, dated 1988)
“And” between values parts separate entries of the source, which are not always exact repeats. Equal entries are not always repeated. One block for each molecule: values may come before it.

Experiments:
Format in all cases: biochemical
[1] = system: normal human blood pooled plasma; assay: Test 2: plasminogen activity, sample incubated with normal human pooled plasma; details: Table 2
Description: Following this, the samples, diluted, were incubated with normal human blood pooled plasma, which had been diluted 1:40 in TRIS buffer, in proportions of 1 part fraction to two parts plasma. These combinations were incubated to determine if the fractions had plasminogen activator properties.
(§1) In Test 2, 30 μl of a 1:40 dilution of normal human plasma were used, and in Test 3, 30 µl of 40 M/L of pure plasminogen were used. The results, shown as ΔmA/min, represents the average of five readings.

plasmin = plasmin (Homo sapiens, UniProt P00747); assay: Antiplasmin/plasmin inhibitory activity; details: Table 3; for ABSORBANCE: absorbance at 405nm, remaining active plasmin, substrate S-225; for % INHIBITION: by reference to normal human pooled plasma standard curve
Description: Fifty-four different runs were conducted, using various compounds and compositions. […] A standard curve is then constructed, by diluting the pooled plasma, and mixing each dilution with a known plasmin standard. Quantity of active plasmin remaining is measured and this quantity is inversely proportional to antiplasmin activity.

[2] = Test 1: plasmin/plasmin-like activity, cleavage of substrate by the sample; details: Table 2
Description: as §1, with “Each fraction was diluted 1:5 in TRIS buffer (50 mM, pH 7.4, I 0.15), and then mixed with the substrate. […] In” for “In”, “40 M/L” left out

purified plasminogen = purified plasminogen (Homo sapiens, UniProt P00747); assay: Test 3: plasminogen activatory activity, sample incubated with purified plasminogen
Description: In a third test, each fraction was incubated with purified plasminogen so as to enhance activity, because normal human pooled plasma contains plasma proteins inhibitors.
as §1

[3] = Table I, sample 1:5 dilution, pure plasminogen, average of five readings

purified plasminogen, sequence (P00747 20-810 limits assumed): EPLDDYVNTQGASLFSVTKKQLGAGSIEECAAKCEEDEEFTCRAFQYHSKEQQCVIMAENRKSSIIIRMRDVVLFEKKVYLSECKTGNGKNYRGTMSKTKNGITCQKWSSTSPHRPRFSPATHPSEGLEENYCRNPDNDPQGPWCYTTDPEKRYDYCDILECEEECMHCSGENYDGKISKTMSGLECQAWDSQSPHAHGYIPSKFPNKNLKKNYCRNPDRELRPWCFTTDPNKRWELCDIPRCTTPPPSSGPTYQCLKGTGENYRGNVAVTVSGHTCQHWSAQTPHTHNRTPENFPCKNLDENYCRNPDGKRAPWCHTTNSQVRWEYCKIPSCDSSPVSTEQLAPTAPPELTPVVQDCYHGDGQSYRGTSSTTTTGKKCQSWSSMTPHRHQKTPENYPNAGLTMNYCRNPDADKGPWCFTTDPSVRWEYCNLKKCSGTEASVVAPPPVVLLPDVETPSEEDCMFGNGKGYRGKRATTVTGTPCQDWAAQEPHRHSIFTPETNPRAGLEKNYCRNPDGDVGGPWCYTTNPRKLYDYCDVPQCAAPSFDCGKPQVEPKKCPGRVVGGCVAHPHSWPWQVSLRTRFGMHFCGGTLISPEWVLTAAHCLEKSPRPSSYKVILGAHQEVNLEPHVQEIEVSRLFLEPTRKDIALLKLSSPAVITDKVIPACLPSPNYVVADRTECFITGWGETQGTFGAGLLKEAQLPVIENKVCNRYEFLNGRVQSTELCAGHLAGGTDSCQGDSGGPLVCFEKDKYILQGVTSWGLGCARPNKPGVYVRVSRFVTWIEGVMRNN

ABSORBANCE (plasmin): 0.184
% INHIBITION (plasmin): 0%
Plasminogen Activatory Activity (purified plasminogen; Table 2): 0
Molecule: CERAMIDE TRIHEXOSIDE [PURIFIED CERAMIDE TRIHEXOSIDE]
Plasminogen Activity [1]: 0
Plasmin Activity [2]: 0

ABSORBANCE (plasmin): 0.187
% INHIBITION (plasmin): 0%
Plasminogen Activatory Activity (purified plasminogen; Table 2): 0
Molecule: PHOSPHATIDYL INOSITOL [PURIFIED PHOSPHATIDYL INOSITOL]
Plasminogen Activity [1]: 0
Plasmin Activity [2]: 0

% INHIBITION (plasmin): 18%
Molecule: SPHINGOMYELIN

Further lines, the molecule ahead of its results:

Molecule: CERAMIDE GALACTOSIDE [PURIFIED CERAMIDE GALACTOSIDE]
Plasminogen Activity [1]: 0
ABSORBANCE (plasmin): 0.176 and 0.192
Plasmin Activity [2]: 0
Plasminogen Activatory Activity (purified plasminogen; Table 2): 0

Molecule: DIGALACTOSYL DIGLYCERIDE [PURIFIED DIGALACTOSYL DIGLYCERIDE]
Plasminogen Activity [1]: 0
ABSORBANCE (plasmin): 0.190
% INHIBITION (plasmin): 0%
Plasmin Activity [2]: 0
Plasminogen Activatory Activity (purified plasminogen; Table 2): 0

Molecule: PHOSPHATIDYL INOSITOL 4-MONOPHOSPHATE
ABSORBANCE (plasmin): Turbid

Molecule: PURE PLASMINOGEN: purified plasminogen used in Test 3, tested alone
Plasminogen Activatory Activity (purified plasminogen; [3]): 0 ΔmA/min

B1: ACTIVATED PURE PLASMINOGEN: activated pure plasminogen, positive reference in Test 3 (protein, UniProt P00747 20-580; P00747 581-810, looked up)
Plasmin heavy chain A: EPLDDYVNTQGASLFSVTKKQLGAGSIEECAAKCEEDEEFTCRAFQYHSKEQQCVIMAENRKSSIIIRMRDVVLFEKKVYLSECKTGNGKNYRGTMSKTKNGITCQKWSSTSPHRPRFSPATHPSEGLEENYCRNPDNDPQGPWCYTTDPEKRYDYCDILECEEECMHCSGENYDGKISKTMSGLECQAWDSQSPHAHGYIPSKFPNKNLKKNYCRNPDRELRPWCFTTDPNKRWELCDIPRCTTPPPSSGPTYQCLKGTGENYRGNVAVTVSGHTCQHWSAQTPHTHNRTPENFPCKNLDENYCRNPDGKRAPWCHTTNSQVRWEYCKIPSCDSSPVSTEQLAPTAPPELTPVVQDCYHGDGQSYRGTSSTTTTGKKCQSWSSMTPHRHQKTPENYPNAGLTMNYCRNPDADKGPWCFTTDPSVRWEYCNLKKCSGTEASVVAPPPVVLLPDVETPSEEDCMFGNGKGYRGKRATTVTGTPCQDWAAQEPHRHSIFTPETNPRAGLEKNYCRNPDGDVGGPWCYTTNPRKLYDYCDVPQCAAPSFDCGKPQVEPKKCPGR
Plasmin light chain B: VVGGCVAHPHSWPWQVSLRTRFGMHFCGGTLISPEWVLTAAHCLEKSPRPSSYKVILGAHQEVNLEPHVQEIEVSRLFLEPTRKDIALLKLSSPAVITDKVIPACLPSPNYVVADRTECFITGWGETQGTFGAGLLKEAQLPVIENKVCNRYEFLNGRVQSTELCAGHLAGGTDSCQGDSGGPLVCFEKDKYILQGVTSWGLGCARPNKPGVYVRVSRFVTWIEGVMRNN
modifications: Plasmin
Plasminogen Activatory Activity (purified plasminogen; [3]): 19 ΔmA/min and 18 ΔmA/min
